Laboratory results as given in patent US20250057748A1, “FORMULATIONS OF DIHYDROKAEMPFEROL” (DEBUT BIOTECHNOLOGY, INC., priority 2023, published 2025).

Tests used:
[1] = test system: PPAR-72; settings: stimulates glucose uptake; Zhang et al. 2011; cited from earlier work
[2] = ABTS antioxidant assay (aqueous medium); format: biochemical
From the text: The 2,2′-Azinobis [3-ethylbenzothiazoline-6-sulfonic acid]-diammonium salt (ABTS) antioxidant assay is designed to evaluate the antioxidant activity of compositions comprising dihydrokaempferol in an aqueous medium.
ABTS+ solution is generated as a free radical and used to measure relative ability of a compound to scavenge free radicals. Reduction of the absorbance at 734 nm was standardized to solvent control as an indication of ABTS+ scavenging.

[3] = test system: IL-6; test: Anti-inflammatory activity: IL-6 ELISA in LPS/Poly:IC stressed keratinocytes; format: cell-based, Human; settings: for % Reduction vs Treated / IL-6: stimulated NHEK, 24 hours
Experimental: Normal Human Epidermal Keratinocytes (NHEK) were stressed with a cocktail of lipopolysaccharide (LPS) and Polyinosinic-polycytidylic acid sodium salt (Poly:IC), external aggressors capable of inducing an inflammatory response. Stressed cells were subsequently treated with test articles and incubated for 24 hours. Reduction in inflammatory markers was measured by ELISA and % reduction calculated relative to solvent control.

[4] = target: T1, human neutrophil elastase (Homo sapiens, UniProt P08246); test: Elastase enzyme inhibition; format: biochemical
T1 sequence (P08246 30-267): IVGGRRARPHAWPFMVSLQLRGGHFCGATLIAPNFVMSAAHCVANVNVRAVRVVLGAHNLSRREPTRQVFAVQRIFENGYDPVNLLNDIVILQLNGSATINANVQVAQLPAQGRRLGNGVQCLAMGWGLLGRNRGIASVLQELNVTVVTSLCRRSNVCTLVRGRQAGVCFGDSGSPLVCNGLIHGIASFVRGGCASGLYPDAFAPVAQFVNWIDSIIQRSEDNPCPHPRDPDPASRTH
Experimental: The assay was conducted to evaluate the elastase enzyme inhibition activity of compositions comprising dihydrokaempferol.
Neutrophil infiltration and neutrophil elastase are both increased in the skin in response to UV stress. […] Therefore, inhibition of this enzyme, particularly in combination with antioxidant activity, is effective in delaying wrinkle development and aiding in maintaining skin integrity. This assay is measures release of 4-nitroaniline from an Me-Suc-Ala-Ala-Pro-Val-pNA by human neutrophil elastase and can be quantified at 405 nm by comparing to solvent control.

[5] = Venditti et al. 2013; Liang et al. 2020; cited from earlier work
[6] = test system: macrophage cell lines; settings: macrophage cell lines and skin; Venditti et al. 2013; Lee et al. 2013; cited from earlier work
[7] = test system: Sirtuin-1; settings: reduces oxidative stress and inflammatory response; Zhang et al. 2021; cited from earlier work
[8] = Solubility of dihydrokaempferol in various solvents; format: physicochemical
From the text: Table 1, provided below, provides solubility data for dihydrokaempferol in various solvents.

[9] = test system: glycation; test: Glycation inhibition assay; format: biochemical
Experimental: The assay was conducted to evaluate the glycation inhibition activity of compositions comprising dihydrokaempferol.
Nonenzymatic glycation can occur when glucose reacts with proteins, forming a Schiff base intermediate that subsequently undergoes Amadori rearrangement to form glycosylated proteins, when they react with skin proteins to form Advanced Glycation End products (AGE). AGE formation can result in loss of skin elasticity and impaired cellular function. The glycation inhibition ability of a compound is measured by change in fluorescence at excitation/emission of 360 nm/420 nm relative to solvent control.

[10] = test system: Human dermal fibroblasts (hDF); test: Wound healing: fibroblast regrowth after insert removal, image analysis; format: cell-based; settings: 0.003% DHK
Experimental: Human dermal fibroblasts (hDF) were plated in the presence of a growth-preventing insert. The insert was subsequently removed and regrowth measured by image analysis.

[11] = Dihydrokaempferol stability at 70° C. in various solvents; format: physicochemical
Experimental: Table 2, provided below, provides stability data for compositions comprising dihydrokaempferol in various solvents, when stored at 70° C. for up to one (1) month.

[12] = mice; Liang et al. 2020; cited from earlier work
[13] = Isopropyl lauroyl sarcosinate, 1 month
[14] = Isopropyl lauroyl sarcosinate, 1 week

O=C1c2c(O)cc(O)cc2O[C@H](c2ccc(O)cc2)[C@H]1O [dihydrokaempferol]
Effect on PPAR-72 expression [1]: increases
% Radical Inhibition ([2]; ABTS, 0.00625 % w/w): 32.55%
% Radical Inhibition ([2]; ABTS, 0.0125 % w/w): 42.49%
% Radical Inhibition ([2]; ABTS, 0.025 % w/w): 56.17%
IC50 antioxidant activity ([2]; ABTS, aqueous solvent system, calculated): 0.0143 % w/w
Lowest concentration with antioxidant activity ([2]; aqueous systems): 0.00625 % w/w
% Reduction vs Treated ([3]; 0.001% DHK): 31.32%
IL-6 ([3]; 0.001% DHK): 838.7 pg/mL
% Reduction vs Treated ([3]; 0.002% DHK): 43.70%
IL-6 ([3]; 0.002% DHK): 687.5 pg/mL
% Reduction vs Treated ([3]; 0.003% DHK): 64.79%
IL-6 ([3]; 0.003% DHK): 430.0 pg/mL
Reduction of inflammatory marker IL-6 (up to) ([3]; in vitro, summary of Table 9): up to 64.79%
Lowest concentration inhibiting elastase enzyme activity [4]: 0.1 % w/w
inhibition at 0.02 % strength ([4]; 0.020 % w/w): 0%
inhibition at 0.1 % strength ([4]; 0.100 % w/w): 29.6%
inhibition at 0.5 % strength ([4]; 0.500 % w/w): 81.5%
IC50 elastase enzyme inhibition ([4]; calculated): 0.13 % w/w
Function as anti-diabetic [5]: anti-diabetic
Anti-inflammatory activity [6]: anti-inflammatory activity
Effect on Sirtuin-1 [7]: upregulates
Solubility (% w/w) ([8]; Solvent: 1,2 Propanediol): 0.00 % w/w
Solubility (% w/w) ([8]; Solvent: 1,2 heptanediol): 5.00 % w/w
Solubility (% w/w) ([8]; Solvent: 3-methyl-1,3-butanediol): 0.00 % w/w
Solubility (% w/w) ([8]; Solvent: Butylene glycol): 5.00 % w/w
Solubility (% w/w) ([8]; Solvent: C9-12 Alkane): 0.00 % w/w
Solubility (% w/w) ([8]; Solvent: C15-19 Alkane): 0.00 % w/w
Solubility (% w/w) ([8]; Solvent: Capric/Caprylic Triglyceride): 0.00 % w/w
Solubility (% w/w) ([8]; Solvent: Di(propylene glycol) dibenzoate): 0.00 % w/w
Solubility (% w/w) ([8]; Solvent: Dimethyl Isosoribide): 20.00 % w/w
Solubility (% w/w) ([8]; Solvent: Ethoxydiglycol): 25.00 % w/w
Solubility (% w/w) ([8]; Solvent: Isoamyl Laurate): 0.00 % w/w
Solubility (% w/w) ([8]; Solvent: Isopentyldiol): 5.00 % w/w
Solubility (% w/w) ([8]; Solvent: Isopropyl Lauroyl sarcosinate): 10.00 % w/w
Solubility (% w/w) ([8]; Solvent: Isopropyl Myristate): 0.00 % w/w
Solubility (% w/w) ([8]; Solvent: Jojoba Oil): 0.00 % w/w
Solubility (% w/w) ([8]; Solvent: Neopentyl Glycol Dihexanoate): 0.00 % w/w
Solubility (% w/w) ([8]; Solvent: Oleyl Alcohol): 0.00 % w/w
Solubility (% w/w) ([8]; Solvent: Pentylene glycol): 5.00 % w/w
Solubility (% w/w) ([8]; Solvent: Phenylpropanol): 0.00 % w/w
Solubility (% w/w) ([8]; Solvent: Propanediol): 5.00 % w/w
Solubility (% w/w) ([8]; Solvent: Squalene): 0.00 % w/w
Solubility (% w/w) ([8]; Solvent: Sunflower Oil): 0.00 % w/w
Solubility (% w/w) ([8]; Solvent: Tri C12-13 alkyl citrate): 0.00 % w/w
Solubility (% w/w) ([8]; Solvent: Tributyl citrate): 0.00 % w/w
Solubility (% w/w) ([8]; Solvent: Tributyl-O-acetylcitrate): 0.00 % w/w
Solubility (% w/w) ([8]; Solvent: Triethyl Citrate): 0.00 % w/w
Solubility (% w/w) ([8]; Solvent: Triethyl-O-acetylcitrate): 0.00 % w/w
Solubility (% w/w) ([8]; Solvent: Triisostearin): 0.00 % w/w
Solubility in words ([8]; in Helianthus Annuus (Sunflower) Seed Oil): insoluble
Solubility in words ([8]; in a number of other commonly used solvents): minimally soluble
Solubility in words ([8]; in capric/caprylic triglyceride): minimally soluble
Solubility in words ([8]; in dimethyl isosorbide, ethoxydiglycol, glycol, isopropyl lauroyl sarcosinate, pentylene glycol, 1,2 hexanediol, propanediol, butylene glycol, phenylpropanol, isopentyldiol, 1,2 heptanediol): soluble
Solubility in words ([8]; in isopropyl myristate): minimally soluble
Solubility in words ([8]; in oil): poorly soluble or insoluble
Solubility in words ([8]; in water): poorly soluble or insoluble
Lowest concentration inhibiting glycation [9]: 0.004 % w/w
% Glycation Inhibition ([9]; 0.004 % w/w): 25.05%
% Glycation Inhibition ([9]; 0.011 % w/w): 42.23%
% Glycation Inhibition ([9]; 0.033 % w/w): 64.87%
% Glycation Inhibition ([9]; 0.100 % w/w): 82.42%
IC50 glycation inhibition ([9]; calculated): 0.016 % w/w
Closure Rate 24 hr ([10]; 24 hr): 4.17
Closure Rate 48 hr ([10]; 48 hr): 9.40
% remaining ([11]; Dimethyl isosorbide, 1 month): 91%
Concentration (% w/w) 1 month ([11]; Dimethyl isosorbide, 1 month): 6.04 % w/w
% remaining ([11]; Dimethyl isosorbide, 1 week): 95%
Concentration (% w/w) 1 week ([11]; Dimethyl isosorbide, 1 week): 6.33 % w/w
Concentration (% w/w) Initial ([11]; Dimethyl isosorbide): 6.66 % w/w
% remaining ([11]; Ethoxydiglycol, 1 month): 84%
Concentration (% w/w) 1 month ([11]; Ethoxydiglycol, 1 month): 6.54 % w/w
% remaining ([11]; Ethoxydiglycol, 1 week): 94%
Concentration (% w/w) 1 week ([11]; Ethoxydiglycol, 1 week): 7.27 % w/w
Concentration (% w/w) Initial ([11]; Ethoxydiglycol): 7.74 % w/w
% remaining [11, 13]: 92%
Concentration (% w/w) 1 month [11, 13]: 7.71 % w/w
% remaining [11, 14]: 97%
Concentration (% w/w) 1 week [11, 14]: 8.14 % w/w
Concentration (% w/w) Initial ([11]; Isopropyl lauroyl sarcosinate): 8.40 % w/w
Treatment of severe acute pancreatitis [12]: treatment for severe acute pancreatitis
